Results reported in PubChem BioAssay (NCI).
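Protocol summary: plate cells (96-well), add compound at 5 concentrations, incubate 48 h, interpolate endpoints linearly. Here, GI50 denotes the concentration required for 50% inhibition of growth. TGI: total growth inhibition.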

Experiments:
Experiment in all cases: DTP human tumour cell line panel, 48 h
ACHN renal = tested on: ACHN renal
786-0 renal = tested on: 786-0 renal
KM20L2 colon = tested on: KM20L2 colon
NCI-H23 lung = tested on: NCI-H23 lung
U251 CNS = tested on: U251 CNS
HT29 colon = tested on: HT29 colon
OVCAR-8 ovarian = tested on: OVCAR-8 ovarian
LOX IMVI melanoma = tested on: LOX IMVI melanoma
SF-268 CNS = tested on: SF-268 CNS
RXF 393 renal = tested on: RXF 393 renal

Row | SMILES | TGI (ACHN renal) | TGI (786-0 renal) | TGI (KM20L2 colon) | TGI (NCI-H23 lung) | TGI (U251 CNS) | TGI (HT29 colon) | TGI (OVCAR-8 ovarian) | TGI (LOX IMVI melanoma) | TGI (SF-268 CNS) | TGI (RXF 393 renal) | GI50 (ACHN renal) | GI50 (786-0 renal) | GI50 (NCI-H23 lung) | GI50 (U251 CNS) | GI50 (LOX IMVI melanoma) | GI50 (SF-268 CNS) | GI50 (HT29 colon) | GI50 (OVCAR-8 ovarian) | GI50 (RXF 393 renal)
1 | Cc1c(C(=O)/C=C/c2ccccc2[N+](=O)[O-])[n+](=O)c2ccccc2n1[O-] | 24.2 µM | 17.8 µM | 18 µM | 17.8 µM | 28.5 µM | 23.2 µM | 14.3 µM | – | – | – | – | – | – | – | – | – | – | – | –
2 | O=C1[C@H]2ON(c3ccccc3)C(c3ccco3)[C@H]2C(=O)N1c1ccc(Cc2ccc(N3C(=O)[C@@H]4ON(c5ccccc5)C(c5ccco5)[C@@H]4C3=O)cc2)cc1 (stereo partly specified) | > 100 µM | > 100 µM | > 100 µM | > 100 µM | > 100 µM | > 100 µM | – | > 100 µM | > 100 µM | > 100 µM | – | – | – | – | – | – | – | – | –
3 | O=S1CSSC1 | 94.9 µM | 47 µM | 52.5 µM | 76.7 µM | 37.5 µM | 31.4 µM | 52 µM | 20 µM | 58.4 µM | 35.2 µM | – | – | – | – | – | – | – | – | –
4 | N#CC(C#N)=c1c2nsnc2c(=C(C#N)C#N)c2nsnc12 | 3.23 µM | 17.9 µM | 3.26 µM | 3.91 µM | 3.19 µM | 3.2 µM | 3.12 µM | 3 µM | 4.26 µM | 2.61 µM | – | – | – | – | – | – | – | – | –
5 | CC(C)(C)c1ccc(OC2CCO2)cc1 (stereo unspecified) | > 100 µM | 63.3 µM | 52.8 µM | > 100 µM | 35.3 µM | 50.9 µM | > 100 µM | – | 81.5 µM | – | – | – | – | – | – | – | – | – | –
6 | C=C1C2Oc3ccccc3C1N(c1ccccc1)O2 (stereo unspecified) | > 100 µM | > 100 µM | > 100 µM | – | 90 µM | 67.5 µM | 33.2 µM | 36.2 µM | > 100 µM | > 100 µM | – | – | – | – | – | – | – | – | –
7 | Cc1cccc(C)c1N1C(=O)C(=O)C(c2nc3ccccc3s2)C(=Nc2cccc3c(=O)[nH][nH]c(=O)c23)C1=O (stereo unspecified) | > 100 µM | > 100 µM | > 100 µM | > 100 µM | > 100 µM | > 100 µM | > 100 µM | > 100 µM | > 100 µM | – | – | – | – | – | – | – | – | – | –
8 | C[C@]12C/C(=C/O)C(=O)C(O)=C1CC[C@@H]1C2CC[C@@]2(C)C1CC[C@@H]2O (stereo partly specified) | 72.2 µM | 87.5 µM | 54.6 µM | 40.3 µM | – | 65.1 µM | 75.6 µM | 30.9 µM | 54.1 µM | 36.3 µM | – | – | – | – | – | – | – | – | –
9 | CC1=NN(C(=O)c2ccncc2)C(=O)C1N=Nc1ccc(F)cc1 (stereo unspecified) | > 100 µM | > 100 µM | > 100 µM | > 100 µM | – | > 100 µM | > 100 µM | > 100 µM | > 100 µM | > 100 µM | – | – | – | – | – | – | – | – | –
10 | CCCCCCC(C)CCCCCCCCCCC(=O)O (stereo unspecified) | > 100 µM | > 100 µM | > 100 µM | > 100 µM | > 100 µM | > 100 µM | > 100 µM | > 100 µM | > 100 µM | > 100 µM | – | – | – | – | – | – | – | – | –
11 | COc1cc(CNc2nc3ccc(C(F)(F)F)cc3nc2-c2ccccc2)cc(OC)c1OC | – | > 100 µM | > 100 µM | > 100 µM | > 100 µM | > 100 µM | > 100 µM | > 100 µM | > 100 µM | – | – | – | – | – | – | – | – | – | –
12 | O=c1[nH]c2cc([N+](=O)[O-])ccc2nc1/C(=N\Nc1ccccc1)C(O)c1ccc2c(c1)OCO2 (stereo unspecified) | > 100 µM | > 100 µM | > 100 µM | > 100 µM | > 100 µM | > 100 µM | > 100 µM | > 100 µM | > 100 µM | > 100 µM | – | – | – | – | – | – | – | – | –
13 | CC1(O)CCn2c(=O)c3cc4ccccc4cc3c(=O)n2C1O (stereo unspecified) | > 100 µM | > 100 µM | > 100 µM | > 100 µM | > 100 µM | > 100 µM | > 100 µM | > 100 µM | > 100 µM | > 100 µM | – | – | – | – | – | – | – | – | –
14 | CCOC(OC1=C(C#N)CCCC1)C(CC)[Se]c1ccccc1 (stereo unspecified) | 95.5 µM | 31.6 µM | 62.1 µM | 31.5 µM | 44.3 µM | 73.6 µM | 34.7 µM | 21.9 µM | 27.8 µM | 31.1 µM | – | – | – | – | – | – | – | – | –
15 | CC(=O)n1c(=O)c2cc3c(=O)n(-c4cccc(C#N)c4)c(=O)c3cc2c1=O | > 100 µM | > 100 µM | > 100 µM | > 100 µM | > 100 µM | > 100 µM | > 100 µM | > 100 µM | > 100 µM | > 100 µM | – | – | – | – | – | – | – | – | –
16 | Cn1c(=O)nc2n(-c3ccc(Cl)c(C(F)(F)F)c3)c3ccccc3nc-2c1=O | > 100 µM | > 100 µM | 73.9 µM | > 83.2 µM | > 100 µM | 64.8 µM | 83.1 µM | > 100 µM | > 100 µM | > 100 µM | – | – | – | – | – | – | – | – | –
17 | Cc1cccc(N(CC(=O)O)S(=O)(=O)c2ccccc2)c1 | > 100 µM | > 100 µM | > 100 µM | > 100 µM | > 100 µM | > 100 µM | > 100 µM | > 100 µM | > 100 µM | > 100 µM | – | – | – | – | – | – | – | – | –
18 | COc1ccc(C2Oc3c(c(O)cc4c3[C@H](c3ccc(O)cc3O)[C@H](O)C(c3ccc(O)c(O)c3)O4)C[C@@H]2O)cc1O (stereo partly specified) | > 100 µM | > 100 µM | > 100 µM | > 100 µM | > 100 µM | > 100 µM | > 100 µM | > 100 µM | > 100 µM | > 100 µM | – | – | – | – | – | – | – | – | –
19 | CSc1ccc(N(C)c2nc(C)nc3c2CCC3)cc1 | > 100 µM | 50 µM | – | 33 µM | > 100 µM | 11.1 µM | > 100 µM | 13.7 µM | 60.4 µM | > 100 µM | < 0.01 µM | < 0.01 µM | < 0.01 µM | < 0.01 µM | < 0.01 µM | < 0.01 µM | < 0.01 µM | < 0.01 µM | < 0.01 µM
